Like-named read-outs stand apart in the source and are kept apart here.

Series [1] can be described thus: longitudinal relaxivity rl in human blood plasma at 37° C. The series is classed as physicochemical. To be noted: for longitudinal relaxivity rl calculated for a field of 3 T: calculated from the measurements at lower fields. The procedure:
Compound 23 was dissolved in human blood plasma and the longitudinal relaxivity rl was measured at 37° C. at the following fields:
Compound 13 was dissolved in human blood plasma and the longitudinal relaxivity rl was measured at 37° C. at the following fields:
Compound 36 was dissolved in human blood plasma and the longitudinal relaxivity rl was measured at 37° C. at the following fields:
Compound 40 was dissolved in human blood plasma and the longitudinal relaxivity rl was measured at 37° C. at the following fields:
Compound 43 was dissolved in human blood plasma and the longitudinal relaxivity rl was measured at 37° C. at the following fields:
Compound 46 was dissolved in human blood plasma and the longitudinal relaxivity rl was measured at 37° C. at the following fields: […]

The conditions of series [2]: 3 T, human blood plasma, 37° C., published data; cited from earlier work.

For the compound `Cc1c(C(=O)N(C)c2cccc(N(C)C(=O)C(C)N3CCN4CCN5CCN(CC3)CC(=O)[O][Gd]([O]C(=O)C5)[O]C(=O)C4)c2)c(C)c(C(=O)N(C)c2cccc(N(C)C(=O)C(C)N3CCN4CCN5CCN(CC3)CC(=O)[O][Gd]([O]C(=O)C5)[O]C(=O)C4)c2)c(C)c1C(=O)N(C)c1cccc(N(C)C(=O)C(C)N2CCN3CCN4CCN(CC2)CC(=O)[O][Gd]([O]C(=O)C4)[O]C(=O)C3)c1` (stereo not shown) [Compound 46], the longitudinal relaxivity rl came out at 10.9 mM^1s^1 in series [1] (0.235 T), 10.1 mM^1s^1 in series [1] (0.47 T) and 8.9 mM^1s^1 in series [1] (1.41 T). Besides, the “longitudinal relaxivity rl calculated for a field of 3 T” value (“longitudinal relaxivity rl calculated” below) in series [1] (3 T) is 9 mM^1s^1.
As for `CNC[C@H](O)[C@@H](O)[C@H](O)[C@H](O)CO.CNC[C@H](O)[C@@H](O)[C@H](O)[C@H](O)CO.O=C([O-])CN(CCN(CC(=O)[O-])CC(=O)O)CCN(CC(=O)[O-])CC(=O)O.[Gd+3]` [Magnevist], the longitudinal relaxivity rl in series [2] is listed as 3.3 mM^1s^1.
In the case of `Cc1c(C(=O)N(C)c2cccc(NC(=O)CN3CCN4CCN5CCN(CC3)CC(=O)[O][Gd]([O]C(=O)C4)[O]C(=O)C5)c2)c(C)c(C(=O)N(C)c2cccc(NC(=O)CN3CCN4CCN5CCN(CC3)CC(=O)[O][Gd]([O]C(=O)C4)[O]C(=O)C5)c2)c(C)c1C(=O)N(C)c1cccc(NC(=O)CN2CCN3CCN4CCN(CC2)CC(=O)[O][Gd]([O]C(=O)C3)[O]C(=O)C4)c1` [Compound 36, gadolinium derivative of 2,4,6-trimethylbenzene-1,3,5-tris-[(DO3A-(3-acetamidophenyl))-N-methyl-carboxamide]], the values for the longitudinal relaxivity rl in series [1] (0.235 T), in series [1] (0.47 T) and in series [1] (1.41 T) were 9.3 mM^1s^1, 8.8 mM^1s^1 and 7.3 mM^1s^1, respectively. Moreover, the “longitudinal relaxivity rl calculated” value in series [1] (3 T) was 8.5 mM^1s^1.
Turning to `Cc1c(C(=O)N(C)c2cccc(NC(=O)C(C)N3CCN4CCN5CCN(CC3)CC(=O)[O][Gd]([O]C(=O)C5)[O]C(=O)C4)c2)c(C)c(C(=O)N(C)c2cccc(NC(=O)C(C)N3CCN4CCN5CCN(CC3)CC(=O)[O][Gd]([O]C(=O)C5)[O]C(=O)C4)c2)c(C)c1C(=O)N(C)c1cccc(NC(=O)C(C)N2CCN3CCN4CCN(CC2)CC(=O)[O][Gd]([O]C(=O)C4)[O]C(=O)C3)c1` (stereo not shown) [Compound 40], the longitudinal relaxivity rl in series [1] (0.235 T) is 10.1 mM^1s^1; in series [1] (0.47 T), 8.6 mM^1s^1; in series [1] (1.41 T) it was 9.1 mM^1s^1. The “longitudinal relaxivity rl calculated” value in series [1] (3 T) was 9 mM^1s^1.
With “gadolinium derivative of benzene-1,3,5-tris-[((DO3A-acetamido)-3-(N′-methylamido-phenyl))-carboxamide)] [Compound 13]”, the longitudinal relaxivity rl in series [1] (1.5 T) is 9.2 mM^1s^1; in series [1] (2.35 T), 9.5 mM^1s^1. Also, the “longitudinal relaxivity rl calculated” value in series [1] (3 T) is reported as 9.0 mM^1s^1.
Take `CNC[C@H](O)[C@@H](O)[C@H](O)[C@H](O)CO.CNC[C@H](O)[C@@H](O)[C@H](O)[C@H](O)CO.O=C([O-])CN(CCN(CC(=O)[O-])CC(=O)O)CCN(CC(=O)O)C(COCc1ccccc1)C(=O)[O-].[Gd+3]` (stereo not shown) [Multihance]: the longitudinal relaxivity rl in series [2] was 6.3 mM^1s^1.
In the case of “gadolinium derivative of 2,4,6-trimethylbenzene-1,3,5-tris-[N-methyl-((2-DO3A-propyl)-3-(N′-methyl-amidophenyl))-carboxamide)] [Compound 43]”, the longitudinal relaxivity rl was 12 mM^1s^1 in series [1] (0.235 T), 10.6 mM^1s^1 in series [1] (0.47 T) and 9 mM^1s^1 in series [1] (1.41 T). The “longitudinal relaxivity rl calculated” value in series [1] (3 T) is reported as 8.2 mM^1s^1.
Take “gadolinium derivative of 1,3,5-tris-(N-(DO3A-acetamido)-N-methyl-4-amino-2-methyl-phenyl)-[1,3,5]triazinane-2,4,6-trione [Compound 23]”: the longitudinal relaxivity rl in series [1] (0.25 T) was 10.7 mM⁻¹ s⁻¹; in series [1] (1.5 T), 11.6 mM^1s^1; in series [1] (2.35 T), 10.1 mM^1s^1; in series [1] (3 T), 9.9 mM^1s^1.

The values are drawn from US20090238768A1, “MULTIMERIC MAGNETIC RESONANCE CONTRAST AGENTS” (priority 2005, published 2009).
